In patent US20240217947A1, “Morpholinylquinazoline Compound, Pharmaceutical compositions thereof and Use Thereof” (SHANGHAI YINGLI PHARMACEUTICAL CO., LTD, priority 2022, published 2024):

Experiments:
[1] = target: PI3Kδ (Homo sapiens, UniProt O00329); experiment: PI3Kδ enzyme activity inhibition IC50 evaluation assay (ADP-Glo Kinase Assay); format: biochemical; settings: ATP 25 μM, PIP2 50 μg/mL, 1 hour room temperature, read-out: PI3K-δ IC50
Method: (§1) Effec Example 1 IC50 evaluation assay for PI3Kα, PI3Kδ, PI3Kβ and PI3Kγ enzyme activity inhibition
(§2) The experiment was performed using the ADP-Glo Kinase Assay kit, following the instructions. The following buffer solutions were prepared: 50 mM HEPES, pH 7.5, 3 mM MgCl2, 1 mM EGTA, 100 mM NaCl, 0.03% CHAPS, 2 mM DTT. The test compound samples were dissolved in DMSO and added to the screening system at a certain starting concentration such as 10 μM, 3-fold dilution, while setting up both DMSO control and no kinase control. The optimal concentrations of PI3Kα, PI3Kδ, PI3Kβ and PI3Kγ enzymes, substrate (PIP2) and ATP were prepared in buffer. The enzyme reaction system included: buffer, ATP 25 μM, kinase substrate (PIP2, 50 μg/mL), kinases [PI3Kα (0.15 μg/mL), PI3Kδ (1.2 μg/mL), PI3Kβ (0.3 μg/mL) and PI3Kγ (2.5 μg/mL)], etc. The reaction system was reacted at room temperature for 1 hour. The reaction was terminated by adding a termination reagent (ADP-Glo reagent, 5 μL), and the ADP content in the system was detected using a detection reagent (Kinase Detection Reagent, 10 μL). Signal data were collected using the Envision instrument. Calculate the percentage of (%) inhibition according to the following formula: % inhibition=(DMSO control signal value−sample signal value)/(DMSO control signal value−no-kinase control signal value). The IC50 value was obtained by fitting the curve using the formula Y=Bottom+(Top-Bottom)/(1+(IC50/X)^HillSlope).

[2] = target: T1, HDAC6 (Homo sapiens, UniProt Q9UBN7); experiment: HDAC6 enzyme activity inhibition IC50 evaluation experiment; format: biochemical; settings: HDAC6 5 nM, acetylated peptide 11 μM, trypsin, fluorescence
T1 sequence (Q9UBN7 1-1215): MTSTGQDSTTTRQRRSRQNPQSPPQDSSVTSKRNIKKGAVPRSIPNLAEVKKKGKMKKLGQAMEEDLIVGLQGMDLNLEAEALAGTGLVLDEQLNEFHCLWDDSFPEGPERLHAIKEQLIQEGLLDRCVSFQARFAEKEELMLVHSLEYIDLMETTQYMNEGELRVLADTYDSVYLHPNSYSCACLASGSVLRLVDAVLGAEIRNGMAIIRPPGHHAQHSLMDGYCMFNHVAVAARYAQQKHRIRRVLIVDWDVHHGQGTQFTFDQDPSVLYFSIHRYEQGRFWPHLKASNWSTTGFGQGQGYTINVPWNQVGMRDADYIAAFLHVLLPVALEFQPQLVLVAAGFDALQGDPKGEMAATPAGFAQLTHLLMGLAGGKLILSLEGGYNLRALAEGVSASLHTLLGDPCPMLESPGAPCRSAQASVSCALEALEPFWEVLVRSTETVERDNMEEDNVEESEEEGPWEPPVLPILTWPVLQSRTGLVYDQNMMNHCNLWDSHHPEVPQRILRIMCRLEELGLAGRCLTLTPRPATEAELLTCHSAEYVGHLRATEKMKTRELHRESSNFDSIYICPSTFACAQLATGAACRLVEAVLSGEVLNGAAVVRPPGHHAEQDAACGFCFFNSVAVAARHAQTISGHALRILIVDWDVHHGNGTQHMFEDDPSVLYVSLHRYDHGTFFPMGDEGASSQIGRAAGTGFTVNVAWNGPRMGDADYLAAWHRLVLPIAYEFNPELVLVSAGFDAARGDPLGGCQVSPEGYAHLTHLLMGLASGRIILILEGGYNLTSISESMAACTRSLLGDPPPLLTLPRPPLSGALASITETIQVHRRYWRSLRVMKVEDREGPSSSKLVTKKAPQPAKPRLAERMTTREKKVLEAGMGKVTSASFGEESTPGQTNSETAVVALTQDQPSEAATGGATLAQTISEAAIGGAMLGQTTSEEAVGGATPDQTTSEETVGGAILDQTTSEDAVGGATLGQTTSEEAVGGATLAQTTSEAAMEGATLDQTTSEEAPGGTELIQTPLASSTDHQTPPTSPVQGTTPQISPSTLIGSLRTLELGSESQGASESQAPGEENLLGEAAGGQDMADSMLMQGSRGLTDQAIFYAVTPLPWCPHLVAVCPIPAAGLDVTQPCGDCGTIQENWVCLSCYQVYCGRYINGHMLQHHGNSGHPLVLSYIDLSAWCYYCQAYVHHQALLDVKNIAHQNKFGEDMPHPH
Method: (§3) Effect Example 2 HDAC1, HDAC2, HDAC3, HDAC6 enzyme activity inhibition IC50 evaluation experiment
(§4) Buffer solution (50 mM Tris 7.5, 0.01% Tween-20, 50 mM NaCl) was prepared according to the kit instructions, and the enzyme solution and substrate solution (acetylated peptide with the addition of trypsin) were prepared using the buffer solution. The test compound samples were dissolved with DMSO and added to the screening system at a certain starting concentration such as 10 μM, 3-fold dilution, while setting up a DMSO control and no-enzyme control. The enzyme reaction system includes: buffer, enzyme [final concentration: HDAC1=10 nM, HDAC2=4 nM, HDAC3=7 nM, HDAC6=5 nM], substrate (acetylated peptide) [final concentration: Peptide(HDAC1)=8 μM, Peptide(HDAC2)=10 μM, Peptide(HDAC3)=5 μM, Peptide(HDAC6)=11 μM], trypsin [final concentration: Trypsin(HDAC1,2,3)=0.05 μM, Trypsin(HDAC6)=0.1 μM], etc. The enzymes and compounds were reacted at room temperature for 15 min. After adding the substrate and Trypsin, centrifugation was performed for 1 min, and the fluorescence signal data (excitation wavelength 355 nM/emission wavelength 460 nm) was read continuously for 60 min using Envision, and the linear reaction segment was selected to obtain the slope and thus calculate the inhibition rate at that concentration. The IC50 value was obtained by fitting the curve using the formula Y=Bottom+(Top-Bottom)/(1+(IC50/X)^HillSlope).

[3] = target: HDAC1 (Homo sapiens, UniProt Q13547); experiment: HDAC1 enzyme activity inhibition IC50 evaluation experiment; format: biochemical; settings: HDAC1 10 nM, acetylated peptide 8 μM, trypsin, fluorescence
Chain of HDAC1 (Q13547 whole entry, species assumed): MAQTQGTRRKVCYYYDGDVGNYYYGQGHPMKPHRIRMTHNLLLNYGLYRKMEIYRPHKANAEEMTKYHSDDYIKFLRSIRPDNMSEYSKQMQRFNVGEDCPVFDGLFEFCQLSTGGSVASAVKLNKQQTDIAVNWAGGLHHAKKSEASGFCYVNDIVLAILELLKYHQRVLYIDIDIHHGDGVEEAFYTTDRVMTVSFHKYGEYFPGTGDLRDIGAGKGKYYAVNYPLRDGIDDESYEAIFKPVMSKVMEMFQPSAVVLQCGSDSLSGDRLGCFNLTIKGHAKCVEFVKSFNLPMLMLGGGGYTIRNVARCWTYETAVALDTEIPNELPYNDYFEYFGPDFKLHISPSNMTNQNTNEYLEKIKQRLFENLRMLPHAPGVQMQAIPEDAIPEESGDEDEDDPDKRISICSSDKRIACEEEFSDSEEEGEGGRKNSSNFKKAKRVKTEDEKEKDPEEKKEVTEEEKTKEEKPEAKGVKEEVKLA
Method: as §3, §4

[4] = target: HDAC2 (Homo sapiens, UniProt Q92769); experiment: HDAC2 enzyme activity inhibition IC50 evaluation experiment; format: biochemical; settings: HDAC2 4 nM, acetylated peptide 10 μM, trypsin, fluorescence
Chain of HDAC2 (Q92769 whole entry, species assumed): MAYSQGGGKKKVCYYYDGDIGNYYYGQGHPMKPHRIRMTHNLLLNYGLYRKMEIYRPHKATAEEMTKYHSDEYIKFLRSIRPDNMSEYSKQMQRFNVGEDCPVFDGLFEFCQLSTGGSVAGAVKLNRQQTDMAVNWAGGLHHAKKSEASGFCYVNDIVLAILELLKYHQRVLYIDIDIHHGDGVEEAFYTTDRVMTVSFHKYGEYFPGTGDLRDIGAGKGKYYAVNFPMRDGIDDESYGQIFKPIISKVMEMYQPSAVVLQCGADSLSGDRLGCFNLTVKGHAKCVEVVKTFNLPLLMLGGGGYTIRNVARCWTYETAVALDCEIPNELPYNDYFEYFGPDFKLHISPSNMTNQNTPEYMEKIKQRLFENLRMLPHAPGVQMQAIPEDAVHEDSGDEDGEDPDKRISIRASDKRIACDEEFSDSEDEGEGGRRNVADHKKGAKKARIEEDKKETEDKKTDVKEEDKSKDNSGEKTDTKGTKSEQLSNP
Method: as §3, §4

[5] = target: PI3Kβ (Homo sapiens, UniProt P42338); experiment: PI3Kβ enzyme activity inhibition IC50 evaluation assay (ADP-Glo Kinase Assay); format: biochemical; settings: ATP 25 μM, PIP2 50 μg/mL, 1 hour room temperature, read-out: PI3K-β IC50
Chain of PI3Kβ (P42338 whole entry, species assumed): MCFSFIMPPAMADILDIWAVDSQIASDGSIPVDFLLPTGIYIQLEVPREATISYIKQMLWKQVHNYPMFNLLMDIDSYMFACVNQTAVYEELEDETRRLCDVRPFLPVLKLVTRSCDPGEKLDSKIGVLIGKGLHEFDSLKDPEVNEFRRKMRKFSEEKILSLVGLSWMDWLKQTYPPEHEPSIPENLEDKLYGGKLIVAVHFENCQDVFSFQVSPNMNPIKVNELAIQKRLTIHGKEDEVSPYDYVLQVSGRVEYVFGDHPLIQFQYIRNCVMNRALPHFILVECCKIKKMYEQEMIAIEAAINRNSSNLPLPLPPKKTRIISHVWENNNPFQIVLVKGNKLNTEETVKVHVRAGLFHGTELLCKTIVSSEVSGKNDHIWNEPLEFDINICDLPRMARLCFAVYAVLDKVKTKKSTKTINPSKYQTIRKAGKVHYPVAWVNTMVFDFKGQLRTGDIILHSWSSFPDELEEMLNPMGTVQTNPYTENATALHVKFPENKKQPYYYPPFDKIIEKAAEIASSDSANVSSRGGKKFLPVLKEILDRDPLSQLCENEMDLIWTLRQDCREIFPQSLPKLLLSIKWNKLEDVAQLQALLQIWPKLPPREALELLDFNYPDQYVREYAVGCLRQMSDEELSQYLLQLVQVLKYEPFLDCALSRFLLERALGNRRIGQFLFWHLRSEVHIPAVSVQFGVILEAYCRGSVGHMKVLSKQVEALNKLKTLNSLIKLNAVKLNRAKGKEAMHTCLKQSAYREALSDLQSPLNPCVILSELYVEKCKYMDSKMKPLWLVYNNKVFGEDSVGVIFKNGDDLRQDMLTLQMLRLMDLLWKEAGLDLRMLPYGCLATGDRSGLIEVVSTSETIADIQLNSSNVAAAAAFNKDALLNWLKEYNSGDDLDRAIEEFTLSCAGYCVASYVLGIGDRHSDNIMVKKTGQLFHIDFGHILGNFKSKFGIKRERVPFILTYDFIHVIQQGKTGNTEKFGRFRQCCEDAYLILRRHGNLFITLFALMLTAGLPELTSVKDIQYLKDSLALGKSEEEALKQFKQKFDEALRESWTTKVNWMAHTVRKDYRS
Chain of PI3Kβ (P27986 whole entry partner, species assumed): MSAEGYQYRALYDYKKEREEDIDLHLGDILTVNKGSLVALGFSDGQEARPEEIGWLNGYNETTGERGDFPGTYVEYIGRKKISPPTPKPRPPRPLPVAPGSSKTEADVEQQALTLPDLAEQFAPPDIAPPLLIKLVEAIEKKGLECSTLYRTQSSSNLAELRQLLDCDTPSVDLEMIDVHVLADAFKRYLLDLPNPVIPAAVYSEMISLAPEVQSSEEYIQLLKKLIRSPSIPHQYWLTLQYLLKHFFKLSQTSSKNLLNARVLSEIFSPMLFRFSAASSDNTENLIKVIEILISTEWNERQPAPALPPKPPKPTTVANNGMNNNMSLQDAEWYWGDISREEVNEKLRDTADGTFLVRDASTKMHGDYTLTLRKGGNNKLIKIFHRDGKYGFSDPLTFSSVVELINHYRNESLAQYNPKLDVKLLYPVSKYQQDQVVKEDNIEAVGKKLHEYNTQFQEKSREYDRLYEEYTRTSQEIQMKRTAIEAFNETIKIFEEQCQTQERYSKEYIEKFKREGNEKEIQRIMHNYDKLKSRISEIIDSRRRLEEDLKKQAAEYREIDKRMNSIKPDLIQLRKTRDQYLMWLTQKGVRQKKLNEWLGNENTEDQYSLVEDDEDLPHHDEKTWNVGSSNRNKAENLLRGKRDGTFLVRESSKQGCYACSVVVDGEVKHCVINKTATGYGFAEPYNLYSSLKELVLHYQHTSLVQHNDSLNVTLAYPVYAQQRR
Method: as §1, §2

[6] = target: PI3Kγ (Homo sapiens, UniProt P48736); experiment: PI3Kγ enzyme activity inhibition IC50 evaluation assay (ADP-Glo Kinase Assay); format: biochemical; settings: ATP 25 μM, PIP2 50 μg/mL, 1 hour room temperature, read-out: PI3K-γ IC50
Chain of PI3Kγ (P48736 whole entry, species assumed): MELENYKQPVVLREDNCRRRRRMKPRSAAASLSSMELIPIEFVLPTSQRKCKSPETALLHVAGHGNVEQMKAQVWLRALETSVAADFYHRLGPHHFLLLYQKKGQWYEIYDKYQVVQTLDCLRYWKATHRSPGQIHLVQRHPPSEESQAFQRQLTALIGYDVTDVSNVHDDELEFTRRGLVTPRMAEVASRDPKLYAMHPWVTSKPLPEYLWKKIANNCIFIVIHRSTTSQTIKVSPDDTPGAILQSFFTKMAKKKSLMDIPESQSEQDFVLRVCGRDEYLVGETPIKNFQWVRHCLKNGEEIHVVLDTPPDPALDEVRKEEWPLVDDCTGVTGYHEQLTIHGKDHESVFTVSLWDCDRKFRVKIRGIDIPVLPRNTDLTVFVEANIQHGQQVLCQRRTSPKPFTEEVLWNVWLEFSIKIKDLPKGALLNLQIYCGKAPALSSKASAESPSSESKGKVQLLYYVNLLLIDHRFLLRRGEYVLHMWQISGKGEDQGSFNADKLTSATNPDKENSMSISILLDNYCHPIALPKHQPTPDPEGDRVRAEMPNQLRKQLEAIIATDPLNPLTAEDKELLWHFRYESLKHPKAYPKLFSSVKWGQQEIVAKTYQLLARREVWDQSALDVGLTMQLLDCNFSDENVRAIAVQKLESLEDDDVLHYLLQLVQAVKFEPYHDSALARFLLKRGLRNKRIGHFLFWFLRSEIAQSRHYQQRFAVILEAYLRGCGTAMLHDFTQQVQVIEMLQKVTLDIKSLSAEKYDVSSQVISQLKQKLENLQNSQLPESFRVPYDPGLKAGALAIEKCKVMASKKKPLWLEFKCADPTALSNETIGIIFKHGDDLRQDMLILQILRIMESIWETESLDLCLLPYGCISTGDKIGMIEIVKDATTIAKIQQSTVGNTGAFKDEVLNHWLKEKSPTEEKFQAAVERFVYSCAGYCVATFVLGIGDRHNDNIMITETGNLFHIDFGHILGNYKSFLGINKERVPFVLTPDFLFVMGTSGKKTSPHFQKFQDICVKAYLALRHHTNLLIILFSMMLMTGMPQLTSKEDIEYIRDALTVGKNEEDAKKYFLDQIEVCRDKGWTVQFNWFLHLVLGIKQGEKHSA
Method: as §1, §2

[7] = test system: relapsed and/or refractory B-cell malignant hematologic neoplasms; settings: patients with relapsed and/or refractory B-cell malignant hematologic neoplasms, orally 80 mg once daily for 4 weeks; cited from earlier work
[8] = target: PI3Kα (Homo sapiens, UniProt P42336); experiment: PI3Kα enzyme activity inhibition IC50 evaluation assay (ADP-Glo Kinase Assay); format: biochemical; settings: ATP 25 μM, PIP2 50 μg/mL, 1 hour room temperature, read-out: PI3K-α IC50
Method: as §1, §2

Chain of PI3Kδ (O00329 whole entry, species assumed): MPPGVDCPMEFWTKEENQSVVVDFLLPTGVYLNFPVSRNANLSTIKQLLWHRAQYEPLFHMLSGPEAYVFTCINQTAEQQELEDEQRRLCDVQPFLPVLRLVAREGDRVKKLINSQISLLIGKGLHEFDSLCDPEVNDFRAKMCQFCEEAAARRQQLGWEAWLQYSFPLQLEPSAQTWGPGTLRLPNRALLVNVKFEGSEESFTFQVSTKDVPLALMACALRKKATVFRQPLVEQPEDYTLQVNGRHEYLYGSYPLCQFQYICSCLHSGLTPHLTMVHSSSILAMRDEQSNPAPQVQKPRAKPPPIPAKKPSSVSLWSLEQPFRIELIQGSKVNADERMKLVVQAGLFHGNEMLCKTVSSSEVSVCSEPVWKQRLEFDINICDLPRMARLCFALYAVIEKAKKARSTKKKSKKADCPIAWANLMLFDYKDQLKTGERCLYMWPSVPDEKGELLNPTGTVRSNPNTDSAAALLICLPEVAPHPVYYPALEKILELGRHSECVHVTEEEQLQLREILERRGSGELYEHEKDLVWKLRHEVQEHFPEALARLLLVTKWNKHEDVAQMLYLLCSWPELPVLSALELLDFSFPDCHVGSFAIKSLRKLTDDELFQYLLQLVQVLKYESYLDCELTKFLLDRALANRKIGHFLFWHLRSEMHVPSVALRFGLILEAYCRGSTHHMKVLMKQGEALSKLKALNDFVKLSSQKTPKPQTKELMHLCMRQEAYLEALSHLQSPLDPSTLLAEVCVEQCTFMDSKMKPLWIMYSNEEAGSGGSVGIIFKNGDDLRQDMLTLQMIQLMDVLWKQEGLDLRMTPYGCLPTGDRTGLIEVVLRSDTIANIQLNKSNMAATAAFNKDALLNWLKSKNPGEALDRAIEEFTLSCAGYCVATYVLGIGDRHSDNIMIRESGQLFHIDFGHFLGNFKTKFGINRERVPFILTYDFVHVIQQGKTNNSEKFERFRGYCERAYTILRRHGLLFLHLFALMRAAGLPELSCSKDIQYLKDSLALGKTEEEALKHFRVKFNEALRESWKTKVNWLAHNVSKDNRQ
Chain of PI3Kδ (P27986 whole entry partner, species assumed): as the sequence (P27986 whole entry partner, species assumed) above

Row | Compound | IC50 [1] | IC50 [2] | IC50 [3] | IC50 [4] | IC50 [5] | IC50 [6] | clinical benefit in clinical studies [7] | safety profile in clinical studies [7] | IC50 [8]
1 | COc1ncc(-c2nc(N3CCOCC3)nc3c(CNc4ncc(C(=O)NO)cc4F)cc(F)cc23)cc1NS(C)(=O)=O [Compound 35] | ≤ 0.01 µM | 0.01 to 0.1 µM | ≤ 0.01 µM |  |  |  |  |  | 
2 | COc1ncc(-c2nc(N3CCOCC3)nc3c(CNc4ccc(C(=O)NO)cc4F)cc(F)cc23)cc1NS(C)(=O)=O [Compound 36] | 0.01 to 0.1 µM | 0.01 to 0.1 µM | 0.1 to 1 µM |  |  |  |  |  | 
3 | COc1ncc(-c2nc(N3CCOCC3)nc3c(OC4CCC(c5ccc(C(=O)NO)cc5F)CC4)cc(F)cc23)cc1NS(C)(=O)=O (stereo not drawn) [Compound 41] | 0.1 to 1 µM | 0.1 to 1 µM | 1 to 10 µM |  |  |  |  |  | 
4 | COc1ncc(-c2nc(N3CCOCC3)nc3c(OC4CCN(c5c(F)cc(C(=O)NO)cc5F)CC4)cc(F)cc23)cc1NS(C)(=O)=O [Compound 42] | 0.01 to 0.1 µM | 0.1 to 1 µM | 1 to 10 µM |  |  |  |  |  | 
5 | COc1ncc(-c2nc(N3CCOCC3)nc3c(CN4CCc5cc(C(=O)NO)cc(F)c5C4)cc(F)cc23)cc1NS(C)(=O)=O [Compound 43] | 0.01 to 0.1 µM | 0.1 to 1 µM | 1 to 10 µM |  |  |  |  |  | 
6 | COc1ncc(-c2nc(N3CCOCC3)nc3c(OC4CCN(c5cc(C(=O)NO)no5)CC4)cc(F)cc23)cc1NS(C)(=O)=O [Compound 44] | 0.01 to 0.1 µM | 0.01 to 0.1 µM | 0.1 to 1 µM | 0.1 to 1 µM |  |  |  |  | 
7 | COc1ncc(-c2nc(N3CCOCC3)nc3c(OCc4ncc(C(=O)NO)cc4F)cc(F)cc23)cc1NS(C)(=O)=O [Compound 45] | 1 to 10 µM | 0.01 to 0.1 µM | 0.1 to 1 µM | 1 to 10 µM |  |  |  |  | 
8 | COc1ncc(-c2nc(N3CCOCC3)nc3c(CN4CCC(C(C)(C)O)CC4)cc(F)cc23)cc1NS(C)(=O)=O [YY-20394, N-(5-(6-fluoro-8-((4-(2-hydroxypropyl-2-yl)piperidin-1-yl)methyl)-2-morpholine-quinazolin-4-yl)-2-methoxypyridin-3-yl)methanesulfonamide, reference compound] | ≤ 0.01 µM | > 10 µM |  |  | 0.1 to 1 µM | > 10 µM | clinical benefit | favorable safety profile | 0.1 to 1 µM
